Earlier results as cited in US20070184110A1, “Dipyridamole extended-release formulations and process for preparing same” (priority 2006, published 2007).

Settings: above a pH of 4

Which solubility in water does the source give for `OCCN(CCO)c1nc(N2CCCCC2)c2nc(N(CCO)CCO)nc(N3CCCCC3)c2n1` [Dipyridamole, 2,6-bis-(diethanolamino)-4,8-dipiperidino-(5,4-d)-pyrimidine] here?
The solubility in water was “practically insoluble”.
